Each structure is given as a SMILES string.

The IC50 is the midpoint of a concentration-inhibition curve. Broadly, the clearance is a measure of how efficiently the substance is removed, as volume per time. Read a high clearance as efficient removal.

Series [1] concerns A673 cells. The experiment in a line: Cytotoxicity assay in A673 cells. The series is classed as cell-based, human. Conditions: Homo sapiens, A673, 48 h, read-out: A673 cells Cytotox. IC50.
The target of series [2] is LDHA with C-terminal HiBiT fusion tag (Homo sapiens, UniProt P00338). Description: SplitLuc CETSA. The series is classed as cell-based.
Another series concerns the target LDHA (Homo sapiens, UniProt P00338). Description: Biochemical LDHA inhibition assay.
Series [3] relates to MiaPaCa-2 cells. Description: Cytotoxicity assay in MiaPaCa-2 cells. The format is cell-based. Conditions: Homo sapiens, MIA PaCa-2, 48 h, read-out: MiaPaCa-2 cells Cytotox. IC50.
The subject of series [4] is A673 cells. The experiment in a line: Cellular lactate production assay in A673 cells. The format is cell-based, human. Conditions: Homo sapiens, A673, 0.5 h, read-out: A673 cells lactate inh. IC50.
Series [5] relates to MiaPaCa-2 cells. Description: Cellular lactate production assay in MiaPaCa-2 cells. The series is classed as cell-based. Conditions: Homo sapiens, MIA PaCa-2, 0.5 h, read-out: MiaPaCa-2 cells lactate inh. IC50.
A further series in a line: Kinetic solubility assay. The series is classed as physicochemical. Conditions: PBS buffer.
Series [6] has as its system tumor LDH activity (A673 flank xenograft). Description: In vivo LDHA activity in A673 xenograft tumor mouse model. Conditions: single IV 50 mg/kg, A673 xenograft mice.
A short description of series [7]: RLM stability assay, single time point. Conditions: single-point (15 min) measurement; >30 min is highest estimable.
The nature of series [8]: Mouse pharmacokinetic studies. The format is in vivo, CD1 mice. Conditions: male, CD1, mouse, plasma, iv, 10 mg/kg.

Take `CC1(C#Cc2cc(-c3nn(-c4nc(C(=O)O)cs4)c(CC4CC4)c3Cc3ccc(S(N)(=O)=O)c(F)c3)ccc2F)COC1` [Compound 26, 2-(5-(Cyclopropylmethyl)-3-(4-fluoro-3-((3-methyloxetan-3-yl)-ethynyl)phenyl)-4-(3-fluoro-4-sulfamoylbenzyl)-1H-pyrazol-1-yl)-thiazole-4-carboxylic Acid]: the IC50 amounted to 1180 nM in the series on A673 cells [1]; 84 nM in series [2]; 10 nM at LDHA; 1240 nM with MiaPaCa-2 cells [3]; 1050 nM with A673 cells [4]; 898 nM with MiaPaCa-2 cells [5]. The “aq solubility at pH 7.4” value in “Kinetic solubility assay” was “significantly diminished”.

Turning to `CCCC#Cc1cc(-c2nn(-c3nc(C(=O)O)cs3)c(CC3CC3)c2Cc2ccc(S(N)(=O)=O)c(F)c2)ccc1F` [Compound 14, 2-(5-(Cyclopropylmethyl)-3-(4-fluoro-3-(pent-1-yn-1-yl)phenyl)-4-(3-fluoro-4-sulfamoylbenzyl)-1H-pyrazol-1-yl)thiazole-4-carboxylic Acid], the “effect on LDH activity in tumors (in words)” value in [6] was “less effects”. Also, in series [7], the “RLM stability T1/2” value is “metabolized quickly”.

In the case of `Cc1cnc(C#Cc2cc(-c3nn(-c4nc(C(=O)O)cs4)c(CC4CC4)c3Cc3ccc(S(N)(=O)=O)c(F)c3)ccc2F)s1` [Compound 47, 2-(5-(Cyclopropylmethyl)-3-(4-fluoro-3-((5-methylthiazol-2-yl)-ethynyl)phenyl)-4-(3-fluoro-4-sulfamoylbenzyl)-1H-pyrazol-1-yl)-thiazole-4-carboxylic Acid], the clearance at 24 h in series [8] was found to be 128 mL/min/kg. Further, in series [6], the “effect on LDH activity in tumors (in words)” value was “less effects”. The “aq solubility at pH 7.4” value in “Kinetic solubility assay” is given as “significantly diminished”.

On to `NS(=O)(=O)c1ccc(Cc2c(-c3ccc(F)c(C#CC4(F)CCOC4)c3)nn(-c3nc(C(=O)O)cs3)c2CC2CC2)cc1F` (stereo not drawn) [Compound 30, 2-(5-(Cyclopropylmethyl)-3-(4-fluoro-3-((3-fluorotetrahydrofuran-3-yl)ethynyl)phenyl)-4-(3-fluoro-4-sulfamoylbenzyl)-1H-pyrazol-1-yl)thiazole-4-carboxylic Acid], for which the IC50 in the series with A673 cells [1] is 1050 nM; in series [2], 201 nM; against LDHA, 1 nM; in the series on MiaPaCa-2 cells [3], 882 nM; with A673 cells [4], 1060 nM; in the series with MiaPaCa-2 cells [5], 867 nM. The “aq solubility at pH 7.4” value in the series “Kinetic solubility assay” is recorded as “significantly diminished”.

For `Cc1cnc(C#Cc2cccc(-c3nn(-c4nc(C(=O)O)cs4)c(CCC4CC4)c3Cc3ccc(S(N)(=O)=O)c(F)c3)c2)s1` [Compound 80, 2-(5-(2-Cyclopropylethyl)-4-(3-fluoro-4-sulfamoylbenzyl)-3-(3((5-methylthiazol-2-yl)ethynyl)phenyl)-1H-pyrazol-1-yl)thiazole-4-carboxylic Acid], the “aq solubility at pH 7.4” value in the series “Kinetic solubility assay” is “significantly diminished”.

`NS(=O)(=O)c1ccc(Cc2c(-c3ccc(F)c(C#CCN4CCCC4)c3)nn(-c3nc(C(=O)O)cs3)c2CC2CC2)cc1F` [Compound 39, 2-(5-(Cyclopropylmethyl)-3-(4-fluoro-3-(3-(pyrrolidin-1-yl)prop-1-yn-1-yl)phenyl)-4-(3-fluoro-4-sulfamoylbenzyl)-1H-pyrazol-1-yl)-thiazole-4-carboxylic Acid]: in the series “Kinetic solubility assay”, the “aq solubility at pH 7.4” value was “significantly diminished”.

In the case of `CCCCC#Cc1cc(-c2nn(-c3nc(C(=O)O)cs3)c(CC3CC3)c2Cc2ccc(S(N)(=O)=O)c(F)c2)ccc1F` [Compound 15, 2-(5-(Cyclopropylmethyl)-3-(4-fluoro-3-(hex-1-yn-1-yl)phenyl)-4-(3-fluoro-4-sulfamoylbenzyl)-1H-pyrazol-1-yl)thiazole-4-carboxylic Acid], the “RLM stability T1/2” value in series [7] is recorded as “metabolized quickly”.

As to `NS(=O)(=O)c1ccc(Cc2c(-c3ccc(F)c(C#CC4(O)COC4)c3)nn(-c3nc(C(=O)O)cs3)c2CC2CC2)cc1F` [Compound 28, 2-(5-(Cyclopropylmethyl)-3-(4-fluoro-3-((3-hydroxyoxetan-3-yl)-ethynyl)phenyl)-4-(3-fluoro-4-sulfamoylbenzyl)-1H-pyrazol-1-yl)-thiazole-4-carboxylic Acid], the half-maximal inhibitory concentration (IC50) was determined as 3590 nM with A673 cells [1]; 1500 nM in [2]; 6 nM against LDHA; 2990 nM in the series on MiaPaCa-2 cells [3]; 12200 nM in the series with A673 cells [4]; 4870 nM in the series on MiaPaCa-2 cells [5].

For the compound `NS(=O)(=O)c1ccc(Cc2c(-c3ccc(F)c(C#CC4(O)CCCC4)c3)nn(-c3nc(C(=O)O)cs3)c2CC2CC2)cc1F` [Compound 25, 2-(5-(Cyclopropylmethyl)-3-(4-fluoro-3-((1-hydroxycyclopentyl)-ethynyl)phenyl)-4-(3-fluoro-4-sulfamoylbenzyl)-1H-pyrazol-1-yl)-thiazole-4-carboxylic Acid], the IC50 stood at 2190 nM in the series on A673 cells [1]; 150 nM in [2]; 7 nM at LDHA; 2180 nM with MiaPaCa-2 cells [3]; 1930 nM in the series with A673 cells [4]; 1480 nM in the series on MiaPaCa-2 cells [5].

With `NS(=O)(=O)c1ccc(Cc2c(-c3ccc(F)c(C#CC4(O)CCOC4)c3)nn(-c3nc(C(=O)O)cs3)c2CC2CC2)cc1F` (stereo not drawn) [Compound 31, 2-(5-(Cyclopropylmethyl)-3-(4-fluoro-3-((3-hydroxytetrahydrofuran-3-yl)ethynyl)phenyl)-4-(3-fluoro-4-sulfamoylbenzyl)-1H-pyrazol-1-yl)thiazole-4-carboxylic Acid], the half-inhibitory concentration (IC50) with A673 cells [1] stood at 2640 nM; in series [2], 815 nM; against LDHA, 5 nM; in the series on MiaPaCa-2 cells [3] it was 1740 nM; in the series on A673 cells [4] it was 5940 nM; with MiaPaCa-2 cells [5], 3870 nM.

In the case of `NS(=O)(=O)c1ccc(Cc2c(-c3ccc(F)c(C#CC4(F)COC4)c3)nn(-c3nc(C(=O)O)cs3)c2CC2CC2)cc1F` [Compound 27, 2-(5-(Cyclopropylmethyl)-3-(4-fluoro-3-((3-fluorooxetan-3-yl)-ethynyl)phenyl)-4-(3-fluoro-4-sulfamoylbenzyl)-1H-pyrazol-1-yl)-thiazole-4-carboxylic Acid], the half-inhibitory concentration (IC50) in the series on A673 cells [1] worked out at 2650 nM; in series [2], 126 nM; at LDHA it was 7 nM; with MiaPaCa-2 cells [3], 2260 nM; in the series on A673 cells [4], 1320 nM; in the series with MiaPaCa-2 cells [5], 1050 nM.

Turning to `Cc1nc(C#Cc2cccc(-c3nn(-c4nc(C(=O)O)cs4)c(CC4CC4)c3Cc3ccc(S(N)(=O)=O)c(F)c3)c2)cs1` [Compound 65, 2-(5-(Cyclopropylmethyl)-4-(3-fluoro-4-sulfamoylbenzyl)-3-(3-((2-methylthiazol-4-yl)ethynyl)phenyl)-1H-pyrazol-1-yl)thiazole-4-carboxylic Acid], the “aq solubility at pH 7.4” value in “Kinetic solubility assay” is reported as “significantly diminished”.

Consider `Cn1cncc1C#Cc1cc(-c2nn(-c3nc(C(=O)O)cs3)c(CC3CC3)c2Cc2ccc(S(N)(=O)=O)c(F)c2)ccc1F` [Compound 48, 2-(5-(Cyclopropylmethyl)-3-(4-fluoro-3-((1-methyl-1H-imidazole-5-yl)ethynyl)phenyl)-4-(3-fluoro-4-sulfamoylbenzyl)-1H-pyrazol-1-yl)thiazole-4-carboxylic Acid], for which the “aq solubility at pH 7.4” value in “Kinetic solubility assay” is reported as “significantly diminished”.

The values above are taken from paper PMC7830743 (Journal of medicinal chemistry, 2020).
